Assay results: US9085791B2, “Method for screening substance relating to endoplasmic reticulum stress participating in onset of diabetes” (THE UNIVERSITY OF TOKUSHIMA, priority 2011, dated 2015)

How the values were obtained:
Assay type in all cases: cell-based
[1] = tested on: IRE1 pathway; experiment: Ire1 activation reporter (XBP1 splicing) in cell strains derived from different organs; settings: 0.2 ug/ml tunicamycin, 6 hours
Text: (§1) The endoplasmic reticulum stress response is controlled by the three pathways, namely, Ire1 pathway, PERK pathway, and ATF6 pathway. Apart from the homeostasis of endoplasmic reticulum, they are also individually involved in control of organ-specific metabolism. Detection of the three endoplasmic reticulum stress response pathways is considered important to discover a drug targeting organ-specific endoplasmic reticulum stress response with fewer side effects. […] Med. (2004) 10 98-102, for measuring Ire1 pathway by XBP1 splicing, and a PERK activation reporter expression vector, disclosed in J Cell Biol. (2004) 167 27-33, for measuring PERK pathway by ATF4 translation were produced. An EGFPS-ATF6d expression vector, an EGFPL expression vector, the Ire1 activation reporter expression vector, and the PERK activation reporter expression vector were expressed in pancreatic β-cell strain MIN6 cells, hepatic cell strain HepG2 cells, adipose cell strain 3T3-L1 cells, and skeletal muscle cell strain L6 cells, respectively. The cells were observed 6 hours after the stimulation with 0.2 ug/ml tunicamycin, which is an endoplasmic reticulum stress inducer.

[2] = tested on: ATF6 activation; experiment: ATF6 activity reporter system (EGFPS-ATF6d and EGFPL expression vectors) in HEK293 cells, green fluorescence
Text: An EGFPS-ATF6d expression vector and an EGFPL expression vector were produced using a green fluorescent protein GFP as a reporter protein. An ATF6 activity reporter system having the two vectors was introduced into the following cell strains.
The EGFPS-ATF6d expression vector and the EGFPL expression vector were introduced into HEK293 cells using a polyethylene imine method at an efficiency of not less than 90%. Through an electroporation method using NEON (electroporation device) (Invitrogen), the EGFPS-ATF6d expression vector and the EGFPL expression vector were introduced into MIN6 cells, HepG2 cells, 3T3-L1 cells, and L6 cells at an efficiency of not less than 80%, 60%, 90%, and 70%, respectively.
In order to confirm that the ATF6 activity reporter system functions in an endoplasmic reticulum stress-dependent manner, the EGFPS-ATF6d expression vector and the EGFPL expression vector were coexpressed or individually expressed in HEK293 cells.
In the cells in which the EGFPS-ATF6d expression vector and the EGFPL expression vector were coexpressed, green fluorescence was slightly observed. The cells were stimulated with 0.2 ug/ml tunicamycin, which is an endoplasmic reticulum stress inducer, and observed 6 hours after the stimulation.
It is important that ATF6 activity reporter system is capable of detecting ATF6 activation in an endoplasmic reticulum stress-specific manner. Therefore, HEK293 cells in which the EGFPS-ATF6d expression vector and the EGFPL expression vector are coexpressed are stimulated by etoposide, which is a DNA replication inhibitor; thapsigargin, which is an endoplasmic reticulum stress inducer; and DTT, which is an endoplasmic reticulum stress inducer, in an amount of 100 uM, 0.2 uM, and 1 mM, respectively; and the presence of fluorescence was observed.

[3] = tested on: ATF6 activation; experiment: ATF6 activity reporter system in mouse fibroblasts modified by deleting Ire1α gene or PERK gene; settings: 0.2 ug/ml tunicamycin, 6 hours
Description: The endoplasmic reticulum stress response is known to be controlled by three individual pathways. It is important that the ATF6 activity reporter system enables detection of ATF6 activation with no influence of other pathways, such as Ire1 pathway or PERK pathway. In this connection, the EGFPS-ATF6d expression vector and the EGFPL expression vector were coexpressed in mouse fibroblasts modified by deleting Ire1α gene or PERK gene. The cells were observed 6 hours after stimulation with 0.2 ug/ml tunicamycin, which is an endoplasmic reticulum stress inducer.

[4] = tested on: PERK pathway; experiment: PERK activation reporter (ATF4 translation) in cell strains derived from different organs; settings: HepG2, MIN6, L6, 3T3-L1 cells; 0.2 ug/ml tunicamycin, 6 hours
Text: as §1

[5] = tested on: ATF6 pathway; experiment: ATF6 activity reporter system in cell strains derived from different organs; settings: HepG2, MIN6, L6, 3T3-L1 cells; 0.2 ug/ml tunicamycin, 6 hours
Text: as §1

[6] = tested on: MIN6 cells; experiment: Insulin secretion in pancreatic β-cell MIN6 cells (ELISA); settings: thapsigargin 0.2 uM or DTT 1 M for 30 minutes, culture 36 hours, then KREBS buffer with 3 mM or 20 mM glucose for 1 hour
Description: A control solution (DMSO), a thapsigargin solution (thapsigargin/DMSO solution), or a DTT solution (DTT/DMSO solution) was added to a culture solution (DMEM containing 10% fetal bovine serum) in which pancreatic p-cell MIN6 cells are cultured, and the culture solution was replaced with a general culture solution (DMEM containing 10% fetal bovine serum) after 30 minutes. Then, the culture was continued for 36 hours. The thapsigargin solution was added so that the thapsigargin concentration in the culture solution became 0.2 uM, and the DTT solution was added so that the DTT concentration in the culture solution became […]. Thereafter, the culture solution was replaced with a KREBS buffer solution containing 3 mM or 20 mM glucose, and the culture was continued for 1 hours. The concentration of insulin secreted in the culture solution was measured according to the ELISA method.

[7] = tested on: HEK293 cells; experiment: Hoechst33258 staining for cell death of stimulated HEK293 cells; settings: etoposide 100 uM, thapsigargin 0.2 uM, DTT 1 mM, after 36 hours
[8] = HEK293 cells coexpressing both vectors, etoposide 100 uM, thapsigargin 0.2 uM, DTT 1 mM

Molecule: tunicamycin
- activation of IRE1 pathway (fluorescence intensity) ([1]; adipose cell strain 3T3-L1 cells): relatively low
- activation of IRE1 pathway (fluorescence intensity) ([1]; hepatic cell strain HepG2 cells): relatively high
- activation of IRE1 pathway (fluorescence intensity) ([1]; pancreatic β-cell strain MIN6 cells): relatively high
- activation of IRE1 pathway (fluorescence intensity) ([1]; skeletal muscle cell strain L6 cells): relatively high
- green fluorescence ([2]; 0.2 ug/ml tunicamycin, 6 hours after stimulation, HEK293 cells coexpressing EGFPS-ATF6d and EGFPL expression vectors): significant green fluorescence was observed
- green fluorescence ([2]; 0.2 ug/ml tunicamycin, 6 hours after stimulation, HEK293 cells with EGFPS-ATF6d and EGFPL expression vectors individually expressed): no green fluorescence was observed
- green fluorescence ([3]; fibroblast modified by Ire1α gene deletion): significant green fluorescence was observed
- green fluorescence ([3]; fibroblast modified by PERK gene deletion): significant green fluorescence was observed
- degree of the activation of PERK pathway, order among cell strains [4]: highest in hepatic cell strain HepG2 cells (pancreatic β-cell strain MIN6 cells and skeletal muscle cell strain L6 cells), followed by adipose cell strain 3T3-L1 cells
- intensity of activation of ATF6 pathway, order among cell strains [5]: highest in hepatic cell strain HepG2 cells, followed by pancreatic β-cell strain MIN6 cells, skeletal muscle cell strain L6 cells, and adipose cell strain 3T3-L1 cells in descending order

Molecule: C/C=C(/C)C(=O)O[C@H]1C(C)=C2[C@H]([C@@H]1OC(=O)CCCCCCC)[C@@](C)(OC(C)=O)C[C@H](OC(=O)CCC)[C@@]1(O)[C@H]2OC(=O)[C@@]1(C)O [thapsigargin]
- green fluorescence [2, 8]: significant green fluorescence was observed
- insulin secretion (concentration of insulin secreted in the culture solution) [6]: insulin secretion was suppressed
- cell death (Hoechst33258 staining) [7]: severe enough to cause cell death after 36 hours

Molecule: COc1cc([C@@H]2c3cc4c(cc3[C@@H](O[C@@H]3O[C@@H]5CO[C@@H](C)O[C@H]5[C@H](O)[C@H]3O)[C@H]3COC(=O)[C@H]23)OCO4)cc(OC)c1O [etoposide]
- green fluorescence [2, 8]: no green fluorescence was observed
- cell death (Hoechst33258 staining) [7]: severe enough to cause cell death after 36 hours

Molecule: O[C@H](CS)[C@H](O)CS (racemic) [DTT, dithiothreitol]
- green fluorescence [2, 8]: significant green fluorescence was observed
- insulin secretion (concentration of insulin secreted in the culture solution) [6]: insulin secretion was suppressed
- cell death (Hoechst33258 staining) [7]: severe enough to cause cell death after 36 hours
